# Source: publication PMC5517430, “2,3,7,8-Tetrachlorodibenzo-p-dioxin (TCDD)-elicited effects on bile acid homeostasis: Alterations in biosynthesis, enterohepatic circulation, and microbial metabolism” (Scientific Reports, 2017)
# Key:
# liver of C57BL/6 mice = experiment: Histopathological scoring of liver sections; format: in vivo, mouse; design: Fibrosis (periportal), Mean Grade / Vacuolation (centrilobular), Mean Grade / Necrosis; Inflammatory cell foci, Mean Grade / Bile duct proliferation, Mean Grade: scale not given here; details: for Bile duct proliferation, Mean Grade / Fibrosis (periportal), Mean Grade / Necrosis; Inflammatory cell foci, Mean Grade / Vacuolation (centrilobular), Mean Grade: mean ±SD; for Dose at which hepatocyte vacuolization (fatty change) was first observed / Doses at which minimal to slight hepatocyte necrosis and inflammatory cell infiltration were present: every 4 d for 28 d
# Description: Postnatal day 25 (PND25) male C57BL/6 mice weighing within 10% of each other were obtained from Charles River Laboratories (Kingston, NY) and housed in Innovive Innocages (San Diego, CA) containing ALPHA-dri bedding (Shepherd Specialty Papers, Chicago, IL) in a 23 °C environment with 30–40% humidity and a 12-hour light/dark cycle (7am–7 pm). Mice were provided Aquavive water (Innovive) and Harlan Teklad 22/5 Rodent Diet 8940 (Madison, WI) ad libitum, and were acclimated for […] prior to treatment. Beginning on PND28, animals (n = 8; co-housed 4 per cage) were orally gavaged with sesame oil vehicle (Sigma-Aldrich, St. Louis, MO), 0.01, 0.03, 0.1, 0.3, 1, 3, 10, or 30 μg/kg TCDD (AccuStandard, New Haven, CT) every 4d for a total of 28d (7 exposures; Supplementary Fig. S3). The doses used compensate for the relatively short study duration compared to lifelong cumulative human exposure from diverse AhR ligands, the bioaccumulative nature of halogenated AhR ligands, and differences in TCDD’s metabolism and half-life (humans: 1–11 years, [61], mice: 8–12d[62]). TCDD doses between 0.01 and 30 µg/kg result in mouse hepatic tissue levels that span human background serum concentrations reported in the United States, Germany, Spain, and the United Kingdom as well as serum levels in Viktor Yushchenko 4–39 months following intentional poisoning. For the histopathological comparison, female C57BL/6 mice were orally gavaged with sesame oil vehicle or 0.01–30 µg/kg TCDD every 4d for 28d, as previously described. All animal handling procedures were performed with the approval of the Michigan State University (MSU) Institutional Animal Care and Use Committee, in accordance with the relevant ethical guidelines and regulations.
# All processing was performed by the MSU Investigative Histopathology Laboratory (https://humanpathology.natsci.msu.edu/). Formalin-fixed hepatic tissues were vacuum infiltrated with paraffin using a Tissue-Tek VIP 2000 tissue processor (Sakura) and embedded with the Thermo Fisher HistoCentre III Embedding Center (Thermo Fisher, Waltham, Massachusetts). Paraffin blocks were sectioned at 4–5 µm with a Reichert Jung 2030 rotary microtome (Reichert, Depew, New York) and dried for 2–24 h at 56 °C to ensure adherence to the slides. For lipid staining, liver sections frozen in O.C.T. compound were sectioned at 6 µm, fixed in 10% NBF for 5 min, rinsed with water, and immersed in 100% propylene glycol for 5 min. Liver sections were stained with hematoxylin and eosin (H&E) for general histological assessment. Lipids were stained using Oil Red O (ORO) as previously described. Macrophages were labeled using a monoclonal anti-mouse F4/80 antibody (1:100 dilution; AbD Serotec, Raleigh, NC). Collagen was stained with 0.1% Picro-Sirius Red (PSR) dye, with Weigert’s Hematoxylin nuclear dye. Histological assessment of hepatic tissue from female C57BL/6 mice was performed as previously described, [32].
# [1] = design: method as in PMID 19660807, PMID 8145287; details: humans; cited from earlier work
# [2] = system: hepatic taurine and glycine; design: method as in PMID 26582802; details: female mice, cited from earlier work
# [3] = female, 0.3 µg/kg TCDD every 4 d for 28 d
# [4] = female, 1 µg/kg TCDD every 4 d for 28 d
# [5] = female, 3 µg/kg TCDD every 4 d for 28 d
# [6] = female, 10 µg/kg TCDD every 4 d for 28 d
# [7] = female, 30 µg/kg TCDD every 4 d for 28 d
# [8] = male, 0.3 µg/kg TCDD every 4 d for 28 d
# [9] = male, 1 µg/kg TCDD every 4 d for 28 d
# [10] = male, 3 µg/kg TCDD every 4 d for 28 d
# [11] = male, 10 µg/kg TCDD every 4 d for 28 d
# [12] = male, 30 µg/kg TCDD every 4 d for 28 d
compound,measurement,setting,value
"Clc1cc2c(cc1Cl)Oc1cc(Cl)c(Cl)cc1O2 [TCDD, 2,3,7,8-tetrachlorodibenzo-p-dioxin]",Inflammation surrounding the bile ducts (pericholangitis),"liver of C57BL/6 mice; 30 µg/kg TCDD every 4 d for 28 d, male vs female",exclusive to males
same,"Bile duct proliferation, Incidence",liver of C57BL/6 mice; [3],0/8
same,"Fibrosis (periportal), Incidence",liver of C57BL/6 mice; [3],0/8
same,"Necrosis; Inflammatory cell foci, Incidence",liver of C57BL/6 mice; [3],0/8
same,"Vacuolation (centrilobular), Incidence",liver of C57BL/6 mice; [3],0/8
same,"Bile duct proliferation, Incidence",liver of C57BL/6 mice; [4],0/6
same,"Fibrosis (periportal), Incidence",liver of C57BL/6 mice; [4],0/6
same,"Necrosis; Inflammatory cell foci, Incidence",liver of C57BL/6 mice; [4],0/6
same,"Vacuolation (centrilobular), Incidence",liver of C57BL/6 mice; [4],0/6
same,"Bile duct proliferation, Incidence",liver of C57BL/6 mice; [5],0/6
same,"Fibrosis (periportal), Incidence",liver of C57BL/6 mice; [5],0/6
same,"Necrosis; Inflammatory cell foci, Incidence",liver of C57BL/6 mice; [5],0/6
same,"Vacuolation (centrilobular), Incidence",liver of C57BL/6 mice; [5],0/6
same,"Bile duct proliferation, Incidence",liver of C57BL/6 mice; [6],0/4
same,"Fibrosis (periportal), Incidence",liver of C57BL/6 mice; [6],0/4
same,"Necrosis; Inflammatory cell foci, Incidence",liver of C57BL/6 mice; [6],0/4
same,"Vacuolation (centrilobular), Incidence",liver of C57BL/6 mice; [6],1/4
same,"Bile duct proliferation, Incidence",liver of C57BL/6 mice; [7],1/4
same,"Fibrosis (periportal), Incidence",liver of C57BL/6 mice; [7],1/4
same,"Necrosis; Inflammatory cell foci, Incidence",liver of C57BL/6 mice; [7],1/4
same,"Vacuolation (centrilobular), Incidence",liver of C57BL/6 mice; [7],4/4
same,"Bile duct proliferation, Mean Grade",liver of C57BL/6 mice; [7],0.3 ± 0.5
same,"Fibrosis (periportal), Mean Grade",liver of C57BL/6 mice; [7],0.3 ± 0.5
same,"Necrosis; Inflammatory cell foci, Mean Grade",liver of C57BL/6 mice; [7],0.3 ± 0.5
same,"Vacuolation (centrilobular), Mean Grade",liver of C57BL/6 mice; [7],2.0 ± 1.2
same,Dose at which hepatocyte vacuolization (fatty change) was first observed,liver of C57BL/6 mice; females,10 µg/kg
same,Doses at which minimal to slight hepatocyte necrosis and inflammatory cell infiltration were present,liver of C57BL/6 mice; females,30 µg/kg
same,"Bile duct proliferation, Incidence",liver of C57BL/6 mice; [8],0/8
same,"Fibrosis (periportal), Incidence",liver of C57BL/6 mice; [8],0/8
same,"Necrosis; Inflammatory cell foci, Incidence",liver of C57BL/6 mice; [8],0/8
same,"Vacuolation (centrilobular), Incidence",liver of C57BL/6 mice; [8],1/8
same,"Vacuolation (centrilobular), Mean Grade",liver of C57BL/6 mice; [8],0.1 ± 0.4
same,"Bile duct proliferation, Incidence",liver of C57BL/6 mice; [9],0/8
same,"Fibrosis (periportal), Incidence",liver of C57BL/6 mice; [9],0/8
same,"Necrosis; Inflammatory cell foci, Incidence",liver of C57BL/6 mice; [9],0/8
same,"Vacuolation (centrilobular), Incidence",liver of C57BL/6 mice; [9],5/8
same,"Vacuolation (centrilobular), Mean Grade",liver of C57BL/6 mice; [9],0.9 ± 0.8
same,"Bile duct proliferation, Incidence",liver of C57BL/6 mice; [10],0/8
same,"Fibrosis (periportal), Incidence",liver of C57BL/6 mice; [10],0/8
same,"Necrosis; Inflammatory cell foci, Incidence",liver of C57BL/6 mice; [10],2/8
same,"Vacuolation (centrilobular), Incidence",liver of C57BL/6 mice; [10],6/8
same,"Necrosis; Inflammatory cell foci, Mean Grade",liver of C57BL/6 mice; [10],0.3 ± 0.5
same,"Vacuolation (centrilobular), Mean Grade",liver of C57BL/6 mice; [10],1.0 ± 0.8
same,"Bile duct proliferation, Incidence",liver of C57BL/6 mice; [11],0/8
same,"Fibrosis (periportal), Incidence",liver of C57BL/6 mice; [11],0/8
same,"Necrosis; Inflammatory cell foci, Incidence",liver of C57BL/6 mice; [11],6/8
same,"Vacuolation (centrilobular), Incidence",liver of C57BL/6 mice; [11],8/8
same,"Necrosis; Inflammatory cell foci, Mean Grade",liver of C57BL/6 mice; [11],0.8 ± 0.5
same,"Vacuolation (centrilobular), Mean Grade",liver of C57BL/6 mice; [11],3.0 ± 0.5
same,"Bile duct proliferation, Incidence",liver of C57BL/6 mice; [12],5/8
same,"Fibrosis (periportal), Incidence",liver of C57BL/6 mice; [12],5/8
same,"Necrosis; Inflammatory cell foci, Incidence",liver of C57BL/6 mice; [12],8/8
same,"Vacuolation (centrilobular), Incidence",liver of C57BL/6 mice; [12],8/8
same,"Bile duct proliferation, Mean Grade",liver of C57BL/6 mice; [12],0.9 ± 0.8
same,"Fibrosis (periportal), Mean Grade",liver of C57BL/6 mice; [12],0.6 ± 0.5
same,"Necrosis; Inflammatory cell foci, Mean Grade",liver of C57BL/6 mice; [12],1.3 ± 0.5
same,"Vacuolation (centrilobular), Mean Grade",liver of C57BL/6 mice; [12],4.0 ± 0.0
same,Dose at which hepatocyte vacuolization (fatty change) was first observed,liver of C57BL/6 mice; males,0.3 µg/kg
same,Doses at which minimal to slight hepatocyte necrosis and inflammatory cell infiltration were present,liver of C57BL/6 mice; males,≥ 3 µg/kg
same,Half-life,[1],1–11 years
same,"Hepatic taurine level, max fold increase",[2]; p = 0.05,1.4 fold
same,"Hepatic glycine level, max fold increase",[2]; p = 0.10,20.3 fold
